# Target: KRas G12C (Homo sapiens, UniProt P01116, G12C)
# Experiment: Cellular inhibition of KRas G12C measured by Phospho-ERK in NCI-H358 cells
# Type: cell-based
# Conditions: pERK(Thr202/Tyr204) normalized with GAPDH, NCI-H358 cells, 3 hours; read-out: IC50
# Summary of the method: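 NCI-H358 cells were allowed to attach for 8-12 hours, then exposed to compounds for 3 hours at 0.5% DMSO final. After formaldehyde fixation and methanol permeabilization, phospho-ERK (Thr202/Tyr204) was detected by in-cell immunofluorescence and normalized to GAPDH; IC50 came from a 4-parameter fit of percent-of-DMSO values.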
# KRas G12C, sequence (P01116 1-188 isoform P01116-2 G12C): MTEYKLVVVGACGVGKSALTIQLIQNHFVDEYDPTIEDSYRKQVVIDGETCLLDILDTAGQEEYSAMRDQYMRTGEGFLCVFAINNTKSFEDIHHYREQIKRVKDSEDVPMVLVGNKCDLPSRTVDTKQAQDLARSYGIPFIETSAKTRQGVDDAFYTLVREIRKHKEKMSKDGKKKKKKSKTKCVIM
row,IC50 [µM],SMILES
1,> 1,"C=CC(=O)N1CCN(c2nc(OCC3CCN(CC(=O)N(C)C)C3)nc3c2CCN(c2cc(O)cc4ccccc24)C3)CC1 (centres unmarked) [Example 140, 2-[3-[[7-(3-hydroxy-1-naphthyl)-4-(4-prop-2-enoylpiperazin-1-yl)-6,8-dihydro-5H-pyrido[3,4-d]pyrimidin-2-yl]oxymethyl]pyrrolidin-1-yl]-N,N-dimethyl-acetamide]"
2,> 1,"C=CC(=O)N1CCN(c2nc(OCC3CCN(CCO)C3)nc3c2CCN(c2cc(O)cc4ccccc24)C3)CC1 (centres unmarked) [Example 141, 1-[4-[2-[[1-(2-hydroxyethyl)pyrrolidin-3-yl]methoxy]-7-(3-hydroxy-1-naphthyl)-6,8-dihydro-5H-pyrido[3,4-d]pyrimidin-4-yl]piperazin-1-yl]prop-2-en-1-one]"
3,> 1,"C=CC(=O)N1CCN(c2nc(OCCO)nc3c2CCN(c2cc(O)cc4ccccc24)C3)CC1 [Example 142, 1-[4-[2-(2-hydroxyethoxy)-7-(3-hydroxy-1-naphthyl)-6,8-dihydro-5H-pyrido[3,4-d]pyrimidin-4-yl]piperazin-1-yl]prop-2-en-1-one]"
4,> 1,"C=CC(=O)N1CCN(c2nc(OCC(O)CO)nc3c2CCN(c2cc(O)cc4ccccc24)C3)CC1 (centres unmarked) [Example 143, 1-[4-[2-(2,3-dihydroxypropoxy)-7-(3-hydroxy-1-naphthyl)-6,8-dihydro-5H-pyrido[3,4-d]pyrimidin-4-yl]piperazin-1-yl]prop-2-en-1-one]"
5,0.0001 to 1,"C=CC(=O)N1CCN(c2nc(OC[C@@H]3CCCN3CCOC)nc3c2CCN(c2cc(O)cc4ccccc24)C3)CC1 [Example 144, (S)-1-(4-(7-(3-hydroxynaphthalen-1-yl)-2-((1-(2-methoxyethyl)pyrrolidin-2-yl)methoxy)-5,6,7,8-tetrahydropyrido[3,4-d]pyrimidin-4-yl)piperazin-1-yl)prop-2-en-1-one]"
6,0.0001 to 1,"C=CC(=O)N1CCN(c2nc(OC[C@@H]3CCCN3C(C)C)nc3c2CCN(c2cc(O)cc4ccccc24)C3)CC1 [Example 145, 1-[4-[7-(3-hydroxy-1-naphthyl)-2-[[(2S)-1-isopropylpyrrolidin-2-yl]methoxy]-6,8-dihydro-5H-pyrido[3,4-d]pyrimidin-4-yl]piperazin-1-yl]prop-2-en-1-one]"
7,> 1,"C=CC(=O)N1CCN(c2nc(OC[C@@H]3CCNC3)nc3c2CCN(c2cc(O)cc4ccccc24)C3)CC1 [Example 146, 1-[4-[7-(3-hydroxy-1-naphthyl)-2-[[(3R)-pyrrolidin-3-yl]methoxy]-6,8-dihydro-5H-pyrido[3,4-d]pyrimidin-4-yl]piperazin-1-yl]prop-2-en-1-one]"
8,0.0001 to 1,"C=CC(=O)N1CCN(c2nc(O[C@H](C)CN(C)C)nc3c2CCN(c2cc(O)cc4ccccc24)C3)CC1CC#N (stereo partly drawn) [Example 150, 2-(1-acryloyl-4-(2-(((R)-1-(dimethylamino)propan-2-yl)oxy)-7-(3-hydroxynaphthalen-1-yl)-5,6,7,8-tetrahydropyrido[3,4-d]pyrimidin-4-yl)piperazin-2-yl)acetonitrile]"
9,> 1,"C=CC(=O)N1CCN(c2nc(O[C@H](C)CN(C)C)nc3c2CCN(c2cccc4ccccc24)C3)CC1CC#N (stereo partly drawn) [Example 151, 2-(1-acryloyl-4-(2-(((R)-1-(dimethylamino)propan-2-yl)oxy)-7-(naphthalen-1-yl)-5,6,7,8-tetrahydropyrido[3,4-d]pyrimidin-4-yl)piperazin-2-yl)acetonitrile]"
10,0.0001 to 1,"C=CC(=O)N1CCN(c2nc(O[C@H](C)CN(C)C)nc3c2CCN(c2c(C)ccc4[nH]ncc24)C3)CC1CC#N (stereo partly drawn) [Example 152, 2-[4-[2-[(1R)-2-(dimethylamino)-1-methyl-ethoxy]-7-(5-methyl-1H-indazol-4-yl)-6,8-dihydro-5H-pyrido[3,4-d]pyrimidin-4-yl]-1-prop-2-enoyl-piperazin-2-yl]acetonitrile]"
11,0.0001 to 1,"C=CC(=O)N1CCN(c2nc(OCCCN3C[C@@H]4C[C@H]3CO4)nc3c2CCN(c2cc(O)cc4ccccc24)C3)CC1CC#N (stereo partly drawn) [Example 153, 2-[4-[7-(3-hydroxy-1-naphthyl)-2-[3-[(1S,4S)-2-oxa-5-azabicyclo[2.2.1]heptan-5-yl]propoxy]-6,8-dihydro-5H-pyrido[3,4-d]pyrimidin-4-yl]-1-prop-2-enoyl-piperazin-2-yl]acetonitrile]"
12,0.0001 to 1,"C=CC(=O)N1CCN(c2nc(OCCCN3C[C@@H]4C[C@H]3CO4)nc3c2CCN(c2cccc4ccccc24)C3)CC1CC#N (stereo partly drawn) [Example 154, 2-[4-[7-(1-naphthyl)-2-[3-[(1S,4S)-2-oxa-5-azabicyclo[2.2.1]heptan-5-yl]propoxy]-6,8-dihydro-5H-pyrido[3,4-d]pyrimidin-4-yl]-1-prop-2-enoyl-piperazin-2-yl] acetonitrile]"
13,0.0001 to 1,"C=CC(=O)N1CCN(c2nc(OC[C@@H]3CCCN3C)nc3c2CCN(c2c(C(F)(F)F)ccc4[nH]ncc24)C3)CC1 [Example 156, (S)-1-(4-(2-((1-methylpyrrolidin-2-yl)methoxy)-7-(5-(trifluoromethyl)-1H-indazol-4-yl)-5,6,7,8-tetrahydropyrido[3,4-d]pyrimidin-4-yl)piperazin-1-yl)prop-2-en-1-one]"
14,> 1,C=CC(=O)N1CCN(c2nc(OC[C@@H]3CCCN3C)nc3c2CCN(c2c(OC)ccc4[nH]ncc24)C3)CC1 [Example 157]
15,> 1,"C=CC(=O)N1CCN(c2nc(OC[C@@H]3CCCN3C)nc3c2CCN(c2ccccc2C(F)(F)F)C3)CC1 [Example 159, (S)-1-(4-(2-((1-methylpyrrolidin-2-yl)methoxy)-7-(2-(trifluoromethyl)phenyl)-5,6,7,8-tetrahydropyrido[3,4-d]pyrimidin-4-yl)piperazin-1-yl)prop-2-en-1-one]"
16,> 1,"C=CC(=O)N1CCN(c2nc(OCCCN3CCCCC3)nc3c2CCN(c2c(C)ccc4[nH]ncc24)C3)CC1 [Example 160, 1-(4-(7-(5-methyl-1H-indazol-4-yl)-2-(3-(piperidin-1-yl)propoxy)-5,6,7,8-tetrahydropyrido[3,4-d]pyrimidin-4-yl)piperazin-1-yl)prop-2-en-1-one]"
17,> 1,"C=CC(=O)N1CCN(c2nc(OCC3CCN(C)C3)nc3c2CCN(c2c(C)ccc4[nH]ncc24)C3)CC1 (centres unmarked) [Example 161, 1-[4-[7-(5-methyl-1H-indazol-4-yl)-2-[(1-methylpyrrolidin-3-yl)methoxy]-6,8-dihydro-5H-pyrido[3,4-d]pyrimidin-4-yl]piperazin-1-yl]prop-2-en-1-one]"
18,> 1,"C=CC(=O)N1CCN(c2nc(O[C@H](C)CN(C)C)nc3c2CCN(c2c(C)ccc4[nH]ncc24)C3)CC1 [Example 162, 1-[4-[2-[(1R)-2-(dimethylamino)-1-methyl-ethoxy]-7-(5-methyl-1H-indazol-4-yl)-6,8-dihydro-5H-pyrido[3,4-d]pyrimidin-4-yl]piperazin-1-yl]prop-2-en-1-one]"
19,> 1,"C=CC(=O)N1CCN(c2nc(OCCN(CC)CC)nc3c2CCN(c2c(C)ccc4[nH]ncc24)C3)CC1 [Example 163, 1-(4-(2-(2-(diethylamino)ethoxy)-7-(5-methyl-1H-indazol-4-yl)-5,6,7,8-tetrahydropyrido[3,4-d]pyrimidin-4-yl)piperazin-1-yl)prop-2-en-1-one]"
20,> 1,C=CC(=O)N1CCN(c2nc(OCCN3CCCCC3)nc3c2CCN(c2c(C)ccc4[nH]ncc24)C3)CC1 [Example 164]

# Source: patent publication US10689377B2 (Mirati Therapeutics, Inc., priority 2017, dated 2020)
